Test results taken from US20050096323A1, “Diketopiperazine derivatives to inhibit thrombin” (NovoScience Pharma Inc., priority 1999, published 2005).
Where a name gives a salt, the structure may show the parent alone.

Key:
ICR mice = experiment: Acute toxicity, oral gavage, determination of the maximal dose; assay type: in vivo
Source text: The dose is based on maximal dissolution rate and maximal administered volume of the drug.

SD rats [1] = experiment: Acute myocardial infarction by coronary artery ligation in rats; assay type: in vivo, rat; conditions: for CK (u/ml) / LDH (u/ml): serum;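 as to CK (u/ml): blood collected at end of 6 h (i.v.) or 8 h (intraduodenal) ECG observation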;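 as to LDH (u/ml): blood collected at end of 6 h (i.v.) or 8 h (intraduodenal) ECG observation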
Experimental: The drugs were administered 8 to 10 min after the coronary artery was ligated.

SD rats [2] = experiment: RT, TT, PT, APTT and FIB in rat plasma after administration; assay type: in vivo; design: FIB (Fibrillation) / RT (Clot Retraction Time) / TT (Thrombin Time): unit not given here
Experimental: Blood was taken at 0.5 h and 1.5 h after i.v. injection and at 1 h and 3 h after i.g. and plasma RT,TT,PT,APTT and FIB were determined.

[3] = 0.125 mg/kg i.v., 0 min after ligation (before drug)
[4] = 0.125 mg/kg i.v., 10 min after ligation
[5] = 0.125 mg/kg i.v., 30 min after ligation
[6] = 0.125 mg/kg i.v., 6 h after ligation
[7] = 0.25 mg/kg i.v., 0 min after ligation (before drug)
[8] = 0.25 mg/kg i.v., 10 min after ligation
[9] = 0.25 mg/kg i.v., 30 min after ligation
[10] = 0.25 mg/kg i.v., 6 h after ligation
[11] = 75 mg/kg intraduodenum, 0 min after ligation (before drug)
[12] = 75 mg/kg intraduodenum, 10 min after ligation
[13] = 75 mg/kg intraduodenum, 30 min after ligation
[14] = 75 mg/kg intraduodenum, 6 h after ligation
[15] = i.v. 0.25 mg/kg, first time point (0.5 h)
[16] = i.v. 0.25 mg/kg, second time point (1.5 h)

## CC1CNc2c(cccc2S(=O)(=O)N2C(=O)C3CC(C)CCN3C(=O)C2CCCNC(=N)N)C1 [NPI1999, (3S,6R,8R)-Bicyclo[4.4.0]-1,4-diaza-3-(3-guanidinopropyl)-4-N-(1,2,3,4-tetrahydro-3-methyl-8-quinolinesulfonyl)-8-methyl-2,5-decanedione, hydrochoride salt]
ICR mice; ICR mice, i.g.
  Maximal dose of oral gavage: 2.86 g/kg
  maximal dose of i.g.: 2.86 g/kg/day
ICR mice; i.g. 1.43 g/kg twice, up to one week
  mortality: No mortality was observed
SD rats [1]; 0.125 mg/kg i.v.
  Infarction Area (%): 26.40 ± 7.42 %
  CK (u/ml): 52.75 ± 16.25 u/ml
  LDH (u/ml): 6254.1 ± 220.1 u/ml
SD rats [1]; [3]
  S point in electrocardiogram: 0.33 ± 0.12
  T wave in electrocardiogram: 0.19 ± 0.15
SD rats [1]; [4]
  S point in electrocardiogram: 0.34 ± 0.19
  T wave in electrocardiogram: 0.17 ± 0.18
SD rats [1]; [5]
  S point in electrocardiogram: 0.27 ± 0.21
  T wave in electrocardiogram: 0.18 ± 0.23
SD rats [1]; [6]
  S point in electrocardiogram: 0.08 ± 0.14
  T wave in electrocardiogram: 0.02 ± 0.16
SD rats [1]; 0.25 mg/kg i.v.
  Infarction Area (%): 25.66 ± 7.32 %
  CK (u/ml): 56.52 ± 14.48 u/ml
  LDH (u/ml): 6125.7 ± 385.5 u/ml
SD rats [1]; [7]
  S point in electrocardiogram: 0.33 ± 0.17
  T wave in electrocardiogram: 0.19 ± 0.11
SD rats [1]; [8]
  S point in electrocardiogram: 0.42 ± 0.20
  T wave in electrocardiogram: 0.27 ± 0.13
SD rats [1]; [9]
  S point in electrocardiogram: 0.34 ± 0.22
  T wave in electrocardiogram: 0.26 ± 0.17
SD rats [1]; [10]
  S point in electrocardiogram: 0.24 ± 0.18
  T wave in electrocardiogram: 0.15 ± 0.11
SD rats [1]; 75 mg/kg intraduodenum
  Infarction Area (%): 30.98 ± 7.41%
  CK (u/ml): 53.90 ± 20.60 u/ml
  LDH (u/ml): 6393.3 ± 308.7 u/ml
SD rats [1]; [11]
  S point in electrocardiogram: 0.26 ± 0.13
  T wave in electrocardiogram: 0.12 ± 0.11
SD rats [1]; [12]
  S point in electrocardiogram: 0.28 ± 0.07
  T wave in electrocardiogram: 0.15 ± 0.09
SD rats [1]; [13]
  S point in electrocardiogram: 0.28 ± 0.10
  T wave in electrocardiogram: 0.18 ± 0.11
SD rats [1]; [14]
  S point in electrocardiogram: 0.18 ± 0.22
  T wave in electrocardiogram: 0.13 ± 0.11
SD rats [1]; i.v. 0.25 mg/kg and 0.125 mg/kg
  infarction area and serum LDH and CK: significantly reduced
SD rats [1]; intra-duodenum 75 mg/kg
  infarction area and serum LDH and CK: no significant effects
SD rats [2]; 0.125 mg/kg i.v., 0.5 h
  APTT (Activated Partial Prothromboplastin Time): 28.0 ± 4.0
  FIB (Fibrillation): 4.2 ± 0.9
  PT (Prothrombin Time): 25.3 ± 5.8
  RT (Clot Retraction Time): 83.7 ± 9.7
  TT (Thrombin Time): 53.6 ± 11.1
SD rats [2]; 0.125 mg/kg i.v., 1.5 h
  APTT (Activated Partial Prothromboplastin Time): 28.1 ± 4.6
  FIB (Fibrillation): 4.5 ± 1.2
  PT (Prothrombin Time): 25.0 ± 7.1
  RT (Clot Retraction Time): 60.4 ± 15.9
  TT (Thrombin Time): 39.2 ± 12.5
SD rats [2]; 0.25 mg/kg i.v., 0.5 h
  APTT (Activated Partial Prothromboplastin Time): 46.7 ± 15.0
  FIB (Fibrillation): 2.09 ± 0.5
  PT (Prothrombin Time): 43.1 ± 17.8
  RT (Clot Retraction Time): 107.6 ± 33.7
  TT (Thrombin Time): 62.1 ± 15.8
SD rats [2]; 0.25 mg/kg i.v., 1.5 h
  APTT (Activated Partial Prothromboplastin Time): 34.1 ± 10.3
  FIB (Fibrillation): 2.7 ± 0.8
  PT (Prothrombin Time): 34.6 ± 10.1
  RT (Clot Retraction Time): 78.6 ± 16
  TT (Thrombin Time): 49.6 ± 10.9
SD rats [2]; 75 mg/kg i.g., 1 h
  APTT (Activated Partial Prothromboplastin Time): 30.2 ± 6.9
  FIB (Fibrillation): 4.4 ± 0.7
  PT (Prothrombin Time): 26.6 ± 5.5
  RT (Clot Retraction Time): 74.8 ± 16.6
  TT (Thrombin Time): 53.2 ± 10.0
SD rats [2]; 75 mg/kg i.g., 3.0 h
  APTT (Activated Partial Prothromboplastin Time): 25.7 ± 4.0
  FIB (Fibrillation): 4.5 ± 0.6
  PT (Prothrombin Time): 26.6 ± 5.7
  RT (Clot Retraction Time): 77 ± 29.9
  TT (Thrombin Time): 42.5 ± 9.4
SD rats [2]; i.g. 75 mg/kg, 1 h or 3 h
  RT, TT, PT, APTT, FIB indexes: None of the indexes was significantly affected
SD rats [2]; i.v. 0.125 mg/kg, first time point
  RT, TT, PT, APTT, FIB indexes: RT alone was increased
SD rats [2]; i.v. 0.125 mg/kg, second time point
  RT, TT, PT, APTT, FIB indexes: none of the indexes were affected significantly
SD rats [2]; [15]
  FIB: reduced
  RT, TT, PT and APTT: significantly increased
SD rats [2]; [16]
  APTT and FIB: no significantly affected
  RT, TT, PT: Only RT,TT,PT were increased
